Measured values: article PMC8262356, “SLC26A6-selective inhibitor identified in a small-molecule screen blocks fluid absorption in small intestine” (JCI Insight, 2021)

Biological target: T1, slc26a1 (Mus musculus, UniProt P58735)
T1 construct: expressed in transfected cells; host or cells: 293 T/17 cells, transient transfection with pIRES-HIF vector (IRES-YFP, not fused)
T1 sequence (P58735 1-704): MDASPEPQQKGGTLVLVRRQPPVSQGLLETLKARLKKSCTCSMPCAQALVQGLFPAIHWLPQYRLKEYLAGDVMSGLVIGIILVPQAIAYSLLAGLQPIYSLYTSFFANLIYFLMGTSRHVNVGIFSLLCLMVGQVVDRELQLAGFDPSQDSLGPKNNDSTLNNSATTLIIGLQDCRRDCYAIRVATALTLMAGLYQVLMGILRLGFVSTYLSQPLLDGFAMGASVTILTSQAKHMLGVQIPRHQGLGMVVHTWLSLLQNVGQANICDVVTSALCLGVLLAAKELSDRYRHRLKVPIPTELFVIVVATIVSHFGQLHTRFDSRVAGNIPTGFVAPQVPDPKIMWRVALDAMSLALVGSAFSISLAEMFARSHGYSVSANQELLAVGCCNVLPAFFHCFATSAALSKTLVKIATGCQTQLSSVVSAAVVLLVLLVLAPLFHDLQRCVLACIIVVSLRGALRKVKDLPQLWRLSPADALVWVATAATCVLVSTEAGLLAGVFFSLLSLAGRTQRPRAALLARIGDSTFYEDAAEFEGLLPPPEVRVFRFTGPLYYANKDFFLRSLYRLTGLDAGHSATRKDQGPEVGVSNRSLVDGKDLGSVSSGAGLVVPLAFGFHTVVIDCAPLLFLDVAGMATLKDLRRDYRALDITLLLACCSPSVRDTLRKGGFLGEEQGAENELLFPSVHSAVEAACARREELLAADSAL
Experiment: Selectivity: Cl-/I- exchange in 293T/17 cells transfected with slc26a1 and YFP
Format: cell-based
Settings: 25 μM, 10 min preincubation
Method: YFP-based cellular assays of slc26a3, slc26a4, SLC26A9, and TMEM16A function were performed as described previously ([7]). Slc26a1 and slc26a2 assays were done in transfected HEK 293 cells (see Supplemental Methods for details). Niflumic acid was used as a positive control for SLC26A isoforms ([7]). For TMEM16A, the selective small-molecule inhibitor TMinh-23 was used as a positive control ([28]). The activities of ENaC, CFTR, and CaCC were determined using well-differentiated HBE cells as described previously ([13]). Cl^–/HCO3^– exchange was measured as described previously ([7], [10], [11]). Briefly, cell cytoplasm was labeled with the pH-sensitive fluorescent dye BCECF-AM (Invitrogen), and Cl^–/HCO3^– exchange was measured in response to addition of a gluconate-containing solution to drive exchange of cytoplasmic Cl^– for extracellular HCO3^–, producing cytoplasmic alkalinization.
Slc26a1 and slc26a2 cDNA constructs
The complementar y DNA sequences of slc26a1 and slc26a2 were generated using gB LOCK gene fragments (Int egrat ed DNA technology, Coralville, IA) in the plasmid vector pIRESpuro3 (Takara, San J ose, CA). […]
PBS. […] Background-corrected, area-integrat ed single cell fluorescence was calcul ated for determination of slc26a1 / slc26a2 activit y from the rate of fluorescence quenching. […]

## Cc1c(Br)c(C(F)(F)F)nn1CC(=O)N1CCc2nc3cc(-c4ccccc4)[nH]n3c(=O)c2C1 [PAT1inh-B01]
  effect on slc26a1 activity: did not affect
